For series [1], the system named is patients with non-cirrhotic, non-alcoholic steatohepatitis. The series can be described thus: Subanalysis of clinical trial: concomitant statin use and LDL cholesterol. The format is in vivo, humans. To be noted: patients on statins at baseline; up to Week 72. As for the experimental part: A subanalysis of the data obtained in Example 9 was performed to assess the effect of statins on low density lipoprotein cholesterol (LDL-C) levels. The aims of these secondary analyses were to determine the effect of OCA versus placebo in the subgroup of patients with more severe NASH and to assess the effects of concomitant statin use on serum LDL cholesterol.
The following calculations were performed for OCA treated subjects in Groups A, B, and C. • Mean and median characteristics listed below will be evaluated at baseline and at Week 72. • Laboratory values: LDL-C, high density lipoprotein cholesterol (HDL-C), alanine and aspartate aminotransferase, gamma glutamyl transferase • Age • Gender: percentage male, percentage female • Percentage diabetic • Histology: steatosis, ballooning, inflammation, fibrosis • Mean and median percentage change at Week 72 from baseline of the above characteristics will be evaluated. Results

Series [2] relates to kidney of a rat model of Type 1 diabetes. To be noted: rat model of Type 1 diabetes (Wang 2010); cited from earlier work.
Series [3] relates to intestinal tissue of two animal models of inflammatory bowel disease (DSS and trinitrobenzene sulfonic acid). To be noted: DSS and trinitrobenzene sulfonic acid models (Gadaleta 2011); cited from earlier work.
Series [4] concerns patients with non-cirrhotic, non-alcoholic steatohepatitis. Put plainly: Randomized placebo-controlled clinical trial in non-alcoholic steatohepatitis. The format is in vivo, humans. To be noted: at 24 weeks; 25 mg daily orally vs placebo; 95% CI −45 to −3. As for the experimental part: A multicenter, double-blind, placebo-controlled, parallel group, randomized clinical trial was conducted in patients with non-cirrhotic, non-alcoholic steatohepatitis to assess treatment with obeticholic acid given orally (25 mg daily) or placebo for 72 weeks. Patients were randomly assigned 1:1 using a computer-generated, centrally administered procedure, stratified by clinical center and diabetes status. The primary outcome measure was improvement in centrally scored liver histology defined as a decrease in non-alcoholic fatty liver disease activity score by at least 2 points without worsening of fibrosis from baseline to the end of treatment. Change in alanine aminotransferase at 24 weeks was measured: relative change in alanine aminotransferase −24%, 95% CI −45 to −3.
Patients were enrolled in the study according to the following inclusion criteria: 18 years or older at the time of screening, histological evidence of definite or borderline non-alcoholic steatohepatitis based upon a liver biopsy obtained 90 days or less before randomization, and a histological non-alcoholic fatty liver disease (NAFLD) activity score of 4 or more with a score of 1 or more in each component of the score (steatosis scored 0-3, ballooning 0-2, and lobular inflammation 0-3). Grading and staging of biopsies for the purposes of enrollment were carried out at the site of enrollment. […]

Results on one compound are retold here after patent publication US12337003B2, “Pharmaceutical compositions for combination therapy” (Intercept Pharmaceuticals, Inc., priority 2015, dated 2025).

Consider `CC[C@H]1[C@@H](O)[C@@H]2[C@H](CC[C@]3(C)[C@@H]([C@H](C)CCC(=O)O)CC[C@@H]23)[C@@]2(C)CC[C@@H](O)C[C@@H]12` [OCA, 3α,7α-dihydroxy-6α-ethyl-5β-cholan-24-oic acid], for which the “LDL cholesterol during OCA treatment” value in series [1] is listed as “increased”. In series [2], the “inflammatory infiltrates in kidney” value is recorded as “inhibition of inflammatory infiltrates”. For the same compound, the “inflammatory infiltrates in intestinal tissue” value in series [3] is given as “inhibition of inflammatory infiltrates”. Also, the “relative change in alanine aminotransferase” value in series [4] was −24%.
